Experiments:
[1] = target: muscarinischen Rezeptoren (Großhirnrinde); assay: Receptor binding test, ³H-NMS displacement, cerebral cortex homogenate; set-up: species or system Sprague-Dawley-Ratten; details: rat cerebral cortex homogenate; 0,3 n molar ³H-NMS; 30°C, 45 min; read-out: Rezeptor-Bindungs-Tests IC₅₀ Cortex
Method: (§1) Das Gesamtherz wurde […] Organe wurden abschließend in einem Potter homogenisiert. […] Die Inkubation der Organhomogenate erfolgte bei einer bestimmten Konzentration des Radioliganden und […] Testsubstanzen im Eppendorf-Zentrifugenröhrchen bei 30°C. Die Inkubationsdauer betrug 45 Minuten. Als Radioligand wurde 0,3 n molar 3H-N-Methylscopolamin (3H-NMS) verwendet. Die Inkubation wurde durch Zugabe von […] Puffer mit nachfolgender Vakuumfiltration beendet. Die Filter […] Puffer gespült und […] Summe von spezifischer und unspezifischer Bindung von 3H-NMS. Der Anteil der unspezifischen Bindung wurde definiert als jene Radioaktivität, die in Anwesenheit von 1 μ molar Quinuclidinylbenzilat gebunden wurde. […]. Die IC50-Werte der nicht-markierten Testsubstanzen […] jene Konzentration der Testsubstanz, bei welcher die spezifische Bindung von 3H-NMS an die muscarinischen Rezeptoren in den verschiedenen Organen um 50 % gehemmt wurde. Die Ergebnisse sind aus der Tabelle 1 zu […].

[2] = target: T1, muscarinischen Rezeptoren (Gesamtherz) (Rattus norvegicus, UniProt P10980); assay: Receptor binding test, ³H-NMS displacement, whole heart homogenate; set-up: species or system Sprague-Dawley-Ratten; details: 0,3 n molar ³H-NMS, 30°C, 45 min, read-out: Rezeptor-Bindungs-Tests IC₅₀ Herz
T1 construct: Das Gesamtherz wurde mit einer Schere zerkleinert; from tissue; host or cells: rat whole heart homogenate
T1 sequence (P10980 1-466): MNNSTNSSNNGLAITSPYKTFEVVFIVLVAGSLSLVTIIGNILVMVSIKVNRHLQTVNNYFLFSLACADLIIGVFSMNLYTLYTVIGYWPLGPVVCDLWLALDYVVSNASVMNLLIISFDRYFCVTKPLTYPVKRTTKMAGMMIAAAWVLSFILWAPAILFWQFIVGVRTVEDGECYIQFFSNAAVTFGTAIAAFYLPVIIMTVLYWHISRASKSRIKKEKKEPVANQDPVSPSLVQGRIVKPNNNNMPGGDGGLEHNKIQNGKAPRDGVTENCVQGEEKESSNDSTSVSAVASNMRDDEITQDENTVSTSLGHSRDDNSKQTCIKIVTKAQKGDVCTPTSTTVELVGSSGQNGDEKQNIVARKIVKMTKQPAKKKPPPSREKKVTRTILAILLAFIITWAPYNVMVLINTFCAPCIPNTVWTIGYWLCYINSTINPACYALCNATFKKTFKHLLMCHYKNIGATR
Method: as §1

[3] = system: Blase; assay: Inhibition of the acetylcholine effect on bladder of the guinea pig; format: in vivo, Meerschweinchen; details: anaesthetised guinea pig; 10 µg/kg acetylcholine 5 min after test substance; contraction of exposed urinary bladder
Method: (§2) Am narkotisierten Meerschweinchen wurden 5 Minuten nach Gabe der Prüfsubstanz 10 µg/kg Acetylcholin intravenös als auch gleichzeitig intraarteriell injiziert. Dabei wurde die Herzfrequenz durch extrakorporale Ableitung des EKG, der Ausatemwiderstand nach Konzett-Rößler und die Kontraktion der freigelegten Harnblase direkt registriert. Für die Hemmung der Acetylcholinwirkung an den untersuchten Organen wurden Dosis-Wirkungskurven aufgenommen und daraus -log ED₅₀-Werte bestimmt. Ergebnisse siehe Tabelle III.

[4] = system: Speichelsekretion; assay: Inhibition of pilocarpine-induced salivation in the rat; format: in vivo, THOM-Ratten; details: urethane-anaesthetised rat, i.v.; dose reducing saliva volume by 50%; 2 mg/kg pilocarpine s.c.
Method: Nach Lavy und Mulder (Arch. int. Pharmacodyn. 178, 437-445, (1969)) erhielten mit 1,2 g/kg Urethan narkotisierte männliche THOM-Ratten steigende Dosen der Substanz i.v.. Die Speichelsekretion wurde durch s.c. Gabe von 2 mg/kg Pilocarpin ausgelöst. Der Speichel wurde mit Fließpapier aufgesaugt, die von ihm eingenommene Fläche alle 5 Minuten planimetrisch bestimmt. Die Dosis der Substanz, die das Speichelvolumen um 50% verminderte, wurde graphisch ermittelt.

[5] = system: Herzfrequenz; assay: Inhibition of the acetylcholine effect on heart rate of the guinea pig; format: in vivo, Meerschweinchen; details: anaesthetised guinea pig; 10 µg/kg acetylcholine 5 min after test substance; heart rate (ECG)
Method: as §2

[6] = system: vagale Bradykardie (M₂); assay: M1/M2 selectivity in the rat: inhibition of bradycardia evoked by vagus stimulation; format: in vivo, THOM-Ratten; details: i.v., dose reducing vagal bradycardia (M₂) by 50%, 5 min after injection
Method: (§3) Die angewandte Methode wurde von Hammer und Giachetti (Life Sciences 31, 2991-2998 (1982)) beschrieben. 5 Minuten nach intravenöser Injektion steigender Dosen der Substanz wurden entweder der rechte Vagus elektrisch stimuliert (Frequenz: 25 Hz; Pulsbreite: 2ms; Reizdauer: 30s; Voltzahl: supramaximal) oder 0,3 mg/kg McN-A-343 in männliche THOM-Ratten intravenös injiziert. Die durch Vagusstimulation hervorgerufene Bradykardie und der durch McN-A-343 verursachte Blutdruckanstieg wurden bestimmt. Die Dosis der Substanzen, die entweder die vagale Bradykardie (M₂) oder den Blutdruckanstieg (M₁) um 50% verminderte, wurde graphisch ermittelt. Ergebnisse siehe Tabelle II.

[7] = system: Blutdruckanstieg (M₁); assay: M1/M2 selectivity in the rat: inhibition of blood pressure rise caused by McN-A-343; format: in vivo, THOM-Ratten; details: i.v., dose reducing blood pressure rise (M₁) caused by 0,3 mg/kg McN-A-343 by 50%
Method: as §3

[8] = system: Bronchien; assay: Inhibition of the acetylcholine effect on bronchi of the guinea pig; format: in vivo, Meerschweinchen; details: anaesthetised guinea pig; 10 µg/kg acetylcholine 5 min after test substance; expiratory resistance (Konzett-Rößler)
Method: Am narkotisierten Meerschweinchen wurden 5 Minuten nach Gabe der Prüfsubstanz 10 µg/kg Acetylcholin intravenös als auch gleichzeitig intraarteriell injiziert. Dabei wurde die Herzfrequenz durch extrakorporale Ableitung des EKG, der Ausatemwiderstand nach Konzett-Rößler und die Kontraktion der freigelegten Harnblase direkt registriert. Für die Hemmung der Acetylcholinwirkung an den untersuchten Organen wurden Dosis-Wirkungskurven aufgenommen und daraus -log ED₅₀-Werte bestimmt.

Row | Structure (SMILES) | IC50 [1] | IC50 [2] | -log ED₅₀ Blase [3] | -log ED₅₀ Salivation [4] | -log ED₅₀ Herz [5] | -log ED₅₀ Herz [6] | -log ED₅₀ Blutdruck [7] | -log ED₅₀ Bronchien [8]
1 | O=C1Nc2cccnc2N(C(=O)CCCCCN2CCCCC2)c2ccccc21 [A, 5,11-Dihydro-11-[6-(1-piperidinyl)-1-oxohexyl]-6H-pyrido[2,3-b][1,4]benzodiazepin-6-on] | 60 nM | 10 nM | 6.20 Molkg⁻¹ | 6.65 Mkg⁻¹ | 6.88 Molkg⁻¹ | 7.75 Mkg⁻¹ | 6.42 Mkg⁻¹ | 7.49 Molkg⁻¹
2 | CCN(CC)CC1CCCCN1CC(=O)N1c2ccccc2C(=O)Nc2cccnc21 (stereo not drawn) [B, 11-[[2-[(Diethylamino)methyl]-1-piperidinyl]acetyl]-5,11-dihydro-6H-pyrido[2,3-b][1,4]benzodiazepin-6-on] | 1200 nM | 140 nM | 4.73 Molkg⁻¹ | 5.00 Mkg⁻¹ | 5.84 Molkg⁻¹ | 6.42 Mkg⁻¹ | 5.63 Mkg⁻¹ | 5.58 Molkg⁻¹
3 | CN1CCN(CC(=O)N2c3ccccc3C(=O)Nc3cccnc32)CC1 [C, 5,11-Dihydro-11-[(4-methyl-1-piperazinyl)acetyl]-6H-pyrido[2,3-b][1,4]benzodiazepin-6-on] |  |  | 5.36 Molkg⁻¹ | 6.22 Mkg⁻¹ | 5.85 Molkg⁻¹ |  |  | 6.57 Molkg⁻¹
4 | CN1[C@@H]2CC[C@H]1C[C@@H](OC(=O)C(CO)c1ccccc1)C2 (stereo partly drawn) [D, Atropin] |  |  | 7.03 Molkg⁻¹ |  | 7.70 Molkg⁻¹ | 7.94 Mkg⁻¹ | 7.34 Mkg⁻¹ | 

Reference: patent EP0326066A2, “Condensed diazepinones, process for their preparation and medicaments containing them” (Dr. Karl Thomae GmbH, priority 1988, dated 1989)
